The record followed here is US7101878B1 (Agouron Pharmaceuticals, Inc., priority 1998, dated 2006).

The IC50 is the concentration needed to halve the response being measured.

The target of the assay is T1, human GnRH receptor (Homo sapiens, UniProt P30968).
T1 construct: expressed in transfected cells; host or cells: HEK 293 (hGnRH-R/293, from Dr. Stuart Sealfon)
T1 sequence (P30968 1-328): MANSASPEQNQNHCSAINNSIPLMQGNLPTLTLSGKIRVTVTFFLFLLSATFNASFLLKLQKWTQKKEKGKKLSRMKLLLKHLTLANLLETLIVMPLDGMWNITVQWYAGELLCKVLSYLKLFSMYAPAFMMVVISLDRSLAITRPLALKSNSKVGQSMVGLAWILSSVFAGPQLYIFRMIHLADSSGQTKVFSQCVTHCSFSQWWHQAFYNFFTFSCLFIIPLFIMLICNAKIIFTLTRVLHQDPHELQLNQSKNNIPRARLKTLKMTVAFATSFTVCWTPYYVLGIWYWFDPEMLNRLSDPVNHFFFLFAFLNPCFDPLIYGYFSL
Briefly: Radioligand binding, 125I-GnRH-A displacement, membranes of HEK 293 cells with human GnRH receptor. The following applies: for IC50: read-out: hGnRH IC50. How it is done: All compounds were diluted in 1% DMSO (final assay concentration) in binding assay buffer. […] Reactions were terminated by rapid filtration onto 96-well Packard GF/C filters soaked in 0.1% polyethyleneimine. Filters were washed three times with PBS buffer, dried and counted on a Packard Topcount by liquid scintillation counting.
Assay conditions were identical for assessing compound activities at other species. […] IC50 values for control peptides and test compounds were calculated utilizing GraphPad Prism™ software.
Crude compounds were tested using the competitive radioligand binding assay described above.
The reaction mixture was vortexed and incubated for 1 min at room temperature. After one min, the mixture was vortexed and allowed to incubate for an additional minute. 2 ml of 0.5 M acetic acid/1% BSA was added to the reaction tube and the mixture was added to a C18 Sep-Pak cartridge. The cartridge was washed with subsequent washes of 5 ml H2O and 5 ml 0.5M acetic acid and then eluted with 5×1 ml of 60% CH3CN/40% 0.5M acetic acid. The eluate was diluted with 3× volume of HPLC buffer A (0.1% TFA in H2O) and loaded onto a C18 column. The iodinated product was eluted over 20-25 min with a gradient of 25-100% CH3CN containing 0.1% TFA. The radioactive fractions (750 ed/fraction) are collected into clean polypropylene tubes containing 100 μl of 10% BSA. Fractions were assessed for biological activity by radioligand binding.
S%R is the substrate remaining.

[1] abbreviates: 1 uM, read-out: % Inhib. @ 1 uM hGnRH.
[2] abbreviates: 1 h, repeat of % Inhib. at 1 uM, read-out: Repeats @ 1 uM hGnRH.
Where [3] appears, read: repeat, read-out: Repeats @ 10 uM hGnRH (% inhib.).
Where [4] appears, read: read-out: % inhib. @ 10 uM hGnRH.

Each structure is given as a SMILES string. Read-outs that look alike come from different tables or passages of the source.

Turning to `Cc1cc2c(cc1Cc1ccc(C(=O)NC(C)(C)Cc3ccccc3)o1)C(C)(C)CCC2(C)C`, the inhibition at 1 µM is, setting by setting: under setting [1], 38%; under setting [2], 39%. On to `Cc1cc2c(cc1Cc1ccc(C(=O)N(C)C(C)Cc3ccccc3)o1)C(C)(C)CCC2(C)C` (stereo not drawn), for which the inhibition at 1 µM runs as follows: under setting [1], 15%; under setting [2], 17%. In the case of `Cc1cc2c(cc1Cc1ccc(C(=O)NC(C)(C)Cc3ccc(F)cc3)o1)C(C)(C)CCC2(C)C`, the inhibition at 1 µM amounted to 21% under setting [1] and 22% under setting [2].

As for `Cc1cc2c(cc1Cc1ccc(C(=O)NC(C)(C)c3ccccc3)o1)C(C)(C)CCC2(C)C`, the inhibition at 1 µM runs as follows: under setting [1], 28%; under setting [2], 45%. For `Cc1cc2c(cc1Cc1ccc(C(=O)N(C)CC(O)c3ccccc3)o1)C(C)(C)CCC2(C)C` (stereo not drawn), in that order: 20% and 22%. With `Cc1cc2c(cc1Cc1ccc(C(=O)NC(CO)CSCc3ccccc3)o1)C(C)(C)CCC2(C)C` (stereo not drawn), the inhibition at 1 µM runs as follows: under setting [1], 16%; under setting [2], 7%.

For `Cc1cc2c(cc1Cc1ccc(C(=O)N(C)CC(O)c3cccc(O)c3)o1)C(C)(C)CCC2(C)C` (stereo not drawn), the inhibition at 1 µM under setting [1] is -2% and the inhibition at 1 µM under setting [2] is 9%. In the case of `Cc1cc2c(cc1Cc1ccc(C(=O)NC(C#N)c3ccc(F)cc3)o1)C(C)(C)CCC2(C)C` (stereo not drawn), the inhibition at 1 µM was 2% under setting [1] and 4% under setting [2].

In the case of `Cc1cc2c(cc1Cc1ccc(C(=O)NCc3ccc(F)cc3Cl)o1)C(C)(C)CCC2(C)C`, the inhibition at 1 µM turned out to be 27% under setting [1] and 48% under setting [2]. For `Cc1cc2c(cc1Cc1ccc(C(=O)NCC(O)c3ccc(O)c(O)c3)o1)C(C)(C)CCC2(C)C` (stereo not drawn), in that order: -26% and 11%.

As for `Cc1cc2c(cc1Cc1ccc(C(=O)NC(CCO)c3ccccc3)o1)C(C)(C)CCC2(C)C` (stereo not drawn), the inhibition at 1 µM under setting [1] came to 17% and the inhibition at 1 µM under setting [2] is 23%.

`Cc1cc2c(cc1Cc1ccc(C(=O)N3CCN(c4cccc(O)c4)CC3)o1)C(C)(C)CCC2(C)C`: the inhibition at 1 µM under setting [1] is -1% and the inhibition at 1 µM under setting [2] was -3%.

Turning to `CCN(CCc1ccccn1)C(=O)c1ccc(Cc2cc3c(cc2C)C(C)(C)CCC3(C)C)o1`, the inhibition at 1 µM runs as follows: under setting [1], 12%; under setting [2], 8%. For `Cc1cc2c(cc1Cc1ccc(C(=O)NC(c3ccccc3)c3ccc(Cl)cc3)o1)C(C)(C)CCC2(C)C` (stereo not drawn), in that order: -8% and 3%.

On to `Cc1cc2c(cc1Cc1ccc(C(=O)NCc3c(CO)cnc(C)c3O)o1)C(C)(C)CCC2(C)C`, for which the inhibition at 1 µM under setting [1] was -2% and the inhibition at 1 µM under setting [2] is 6%.

For `Cc1cc2c(cc1Cc1ccc(C(=O)NCC(C)(c3ccccc3)c3ccccc3)o1)C(C)(C)CCC2(C)C`, the inhibition at 1 µM is 16% under setting [1] and 22% under setting [2]. For `Cc1cc2c(cc1Cc1ccc(C(=O)NCCc3ccc(O)c(O)c3)o1)C(C)(C)CCC2(C)C`, in that order: -10% and -3%. For `COc1ccc(OC)c(C(O)C(C)NC(=O)c2ccc(Cc3cc4c(cc3C)C(C)(C)CCC4(C)C)o2)c1` (stereo not drawn), in that order: -6% and 14%. For `Cc1cc2c(cc1Cc1ccc(C(=O)N[C@@H](CO)Cc3c[nH]cn3)o1)C(C)(C)CCC2(C)C`, in that order: -17% and -27%. `Cc1cc2c(cc1Cc1ccc(C(=O)N3CCc4cc(O)c(O)cc4C3C)o1)C(C)(C)CCC2(C)C` (stereo not drawn): the inhibition at 1 µM by setting is: under setting [1], -13%; under setting [2], -5%. For `Cc1cc2c(cc1Cc1ccc(C(=O)NC(CO)[C@H](O)c3ccc([N+](=O)[O-])cc3)o1)C(C)(C)CCC2(C)C` (stereo partly drawn), in that order: -10% and -15%. For `Cc1cc2c(cc1Cc1ccc(C(=O)N(C)C(C)C(O)c3ccc(O)cc3)o1)C(C)(C)CCC2(C)C` (stereo not drawn), in that order: -10% and -13%.

Take `Cc1cc2c(cc1Cc1ccc(C(=O)NC(C)C(O)c3ccccc3)o1)C(C)(C)CCC2(C)C` (stereo not drawn): the inhibition at 1 µM amounted to 12% under setting [1] and 14% under setting [2].

Take `Cc1cc2c(cc1Cc1ccc(C(=O)N[C@H](C)[C@H](O)c3ccc(O)cc3)o1)C(C)(C)CCC2(C)C`: the inhibition at 1 µM is, setting by setting: under setting [1], -2%; under setting [2], 6%. For `Cc1cc2c(cc1Cc1ccc(C(=O)NCC(O)c3ccc(O)cc3)o1)C(C)(C)CCC2(C)C` (stereo not drawn), in that order: 25% and 28%. For `Cc1cc2c(cc1Cc1ccc(C(=O)N[C@@H](CO)Cc3ccc(O)cc3)o1)C(C)(C)CCC2(C)C`, in that order: -12% and -9%. Consider `Cc1cc2c(cc1Cc1ccc(C(=O)Nn3c(O)nnc3-c3ccccc3)o1)C(C)(C)CCC2(C)C`, for which the inhibition at 10 µM is, setting by setting: under setting [3], -25%; under setting [4], -25%. In the case of `Cc1cc2c(cc1Cc1ccc(C(=O)NN3C(=O)c4ccccc4C3=O)o1)C(C)(C)CCC2(C)C`, the inhibition at 10 µM is, setting by setting: under setting [3], -20%; under setting [4], -15%. For `Cc1cc2c(cc1Cc1ccc(C(=O)Nn3c(O)nnc3-c3ccncc3)o1)C(C)(C)CCC2(C)C`, in that order: -28% and -17%. For `Cc1ccc2nc(C)n(NC(=O)c3ccc(Cc4cc5c(cc4C)C(C)(C)CCC5(C)C)o3)c(=O)c2c1`, in that order: -4% and -4%. For `Cc1cc2c(cc1Cc1ccc(C(=O)Nn3c(N)nc(C(F)(F)F)cc3=O)o1)C(C)(C)CCC2(C)C`, the inhibition at 10 µM runs as follows: under setting [3], -5%; under setting [4], -10%. For `COc1cc(OC)c(NC(=O)c2ccc(C(O)c3cc4c(cc3C)C(C)(C)CCC4(C)C)o2)c(OC)c1` (stereo not drawn) [AXC- 07047], the IC50 is 1410 nM. The same measure, in the same setting: the same measure for `COc1cc(C)c(Cl)c(C)c1Cc1ccc(C(N)=O)o1` [AXC- 07450]: greater than 10000 nM. `CCN(CC)S(=O)(=O)c1ccc(OC)c(NC(=O)c2ccc(Cc3cc4c(cc3C)C(C)(C)CCC4(C)C)o2)c1` [Compound 26]: the IC50 came out at 1010 nM. The same measure, in the same setting: the figure for `Cc1cc2c(cc1Cc1ccc(C(=O)NCCCNC(=O)c3ccc(Cc4cc5c(cc4C)C(C)(C)CCC5(C)C)o3)o1)C(C)(C)C=CC2(C)C` [Compound 27] is greater than 10000 nM. The same measure, in the same setting: the figure for `Cc1cc2c(cc1Cc1ccc(C(=O)NCCCCCCNC(=O)c3ccc(Cc4cc5c(cc4C)C(C)(C)CCC5(C)C)o3)o1)C(C)(C)CCC2(C)C` [Compound 28] is greater than 10000 nM; for `Cc1cc2c(cc1Cc1ccc(C(=O)Nc3ccc(S(=O)(=O)Nc4nccs4)cc3)o1)C(C)(C)CCC2(C)C` [Compound 29] it is 1420 nM; for `Cc1cc2c(cc1Cc1ccc(C(=O)N3CCN(c4ncccn4)CC3)o1)C(C)(C)CCC2(C)C` [Compound 30.5] it is 5030 nM. Same read-out and setting: the figure for `Cc1cc2c(cc1Cc1ccc(C(=O)Nc3ccc(N4CCOCC4)cc3)o1)C(C)(C)CCC2(C)C` [Compound 30] is 1350 nM; for `CCOC(=O)Cc1ccc(NC(=O)c2ccc(Cc3cc4c(cc3C)C(C)(C)CCC4(C)C)o2)cc1` [Compound 32] it is 3800 nM. `Cc1cc2c(cc1Cc1ccc(C(=O)Nc3ccc(CC(=O)O)cc3)o1)C(C)(C)CCC2(C)C` [Compound 33]: the IC50 amounted to 5300 nM. On the same count and under the same terms, the figure for `N=C(N)NC[C@H]1CC[C@H](CNC(=O)c2ccc(Cc3ccccc3)o2)CC1` [Compound 34] is greater than 10000 nM; for `Cc1cc2c(cc1Cc1ccc(C(=O)NCC3CCN(C(=N)N)CC3)o1)C(C)(C)CCC2(C)C` [Compound 35] it is 1200 nM.

`Cc1cnc(CNC(=O)c2cccc(Cc3cc4c(cc3C)C(C)(C)CCC4(C)C)c2)cn1` [Compound 37.5]: the IC50 stood at 7800 nM. Still for that read-out and setting: the figure for `CNC(=O)c1ccc(Cc2cc3c(cc2C)C(C)(C)CCC3(C)C)o1` [Compound 37] is 2100 nM; for `Cc1cc2c(cc1Cc1ccc(C(=O)N3C[C@@H]4CCCC[C@@H]4CC3C(=O)NC(C)(C)C)o1)C(C)(C)CCC2(C)C` (stereo partly drawn) [Compound 38.5] it is greater than 10000 nM; for `COCCNC(=O)c1ccc(Cc2cc3c(cc2C)C(C)(C)CCC3(C)C)o1` [Compound 40] it is 530 nM. Same read-out and setting: the figure for `Cc1cnc(CNC(=O)c2ccc(Cc3ccccc3)o2)cn1` [Compound 45] is greater than 10000 nM; for `Cc1cc2c(cc1Cc1ccc(C(=O)NCc3ccc(C(C)(C)C)cc3)o1)C(C)(C)CCC2(C)C` [Compound 49] it is 3700 nM. On to `Cc1cc2c(cc1Cc1ccc(C(=O)NCCc3cccc(F)c3)o1)C(C)(C)CCC2(C)C` [Compound 54], for which the IC50 turned out to be 680 nM.
